Assay results from publication PMC4996284 (CNS neuroscience & therapeutics, 2016).

Legend:
[1] = biological target: T1, rat ASIC1a (Rattus norvegicus, UniProt P55926); conditions: potency relative to amiloride
T1 sequence (P55926 1-526): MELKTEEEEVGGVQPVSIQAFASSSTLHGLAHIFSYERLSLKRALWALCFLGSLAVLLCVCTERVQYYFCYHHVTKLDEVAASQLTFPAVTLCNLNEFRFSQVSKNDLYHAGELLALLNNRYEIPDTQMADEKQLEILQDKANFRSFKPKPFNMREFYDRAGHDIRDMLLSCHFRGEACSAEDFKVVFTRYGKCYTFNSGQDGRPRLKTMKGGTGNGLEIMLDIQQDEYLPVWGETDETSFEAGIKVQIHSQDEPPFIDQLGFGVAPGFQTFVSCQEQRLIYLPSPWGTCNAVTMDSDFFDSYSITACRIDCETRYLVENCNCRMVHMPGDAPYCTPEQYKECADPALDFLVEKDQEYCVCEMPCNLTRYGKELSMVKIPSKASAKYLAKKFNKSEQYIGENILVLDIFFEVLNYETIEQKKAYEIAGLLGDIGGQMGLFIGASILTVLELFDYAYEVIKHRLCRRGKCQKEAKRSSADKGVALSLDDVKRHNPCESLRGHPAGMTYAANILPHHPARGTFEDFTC

[2] = biological target: T1, rat ASIC1a; experiment: cell-based
[3] = tested on: MCAO-induced focal ischemia; experiment: Transient focal ischemia by middle cerebral artery occlusion; type: in vivo, mouse; conditions: mice, 1 µl of 500 µM i.c.v. 3h after MCAO (~12 µM); ACSF 49%

For `NC(=Nc1ccccc1)NC(=O)c1nc(Cl)c(N)nc1N` [Phenamil], the “increased inhibitory activity on ASIC1a currents in comparison with amiloride” value [1] was ~ 2 fold and the IC50 [2] was 6.95 µM.

With `NC(=NCc1ccccc1)NC(=O)c1nc(Cl)c(N)nc1N` [Benzamil] the infarct volume [3] was 33.75%, the “increased inhibitory activity on ASIC1a currents in comparison with amiloride” value [1] was ~ 4 fold and the IC50 [2] was 3.5 ± 0.18 µM.

`CCN(c1nc(N)c(C(=O)NC(=N)N)nc1Cl)C(C)C` [EIPA, 5-(N-ethyl-N-isopropyl)amiloride] was tested, and the IC50 [2] was 20.7 ± 2.18 µM.
